The source of these data is paper doi:10.1101/2024.01.03.574093v2 (biorxiv, 2024).

SMILES strings stand for the structures. Read-outs that look alike come from different tables or passages of the source. *1 amine or outer side, *2 acyl side, *3 side chain or, on linkers, in order; H or OH if unused. Where a SMILES comes first, the peptide text is derived from it. [ ]: non-standard residue; d: D form. The star is where a group is joined. X1 = Cc1nc(N[*:1])sc1-c1cc(C(=O)[*:2])n[nH]1; Bz = O=C(c1ccccc1)*

Common to all, as to assay: cell-based
The target in experiment [1] is T1, JHR (GCE:TAI) (Drosophila melanogaster, UniProt Q9VXW7). The conditions noted are these: Drosophila Kc167, read-out: JHR Efficacy [%].
T1 sequence (Q9VXW7 1-959): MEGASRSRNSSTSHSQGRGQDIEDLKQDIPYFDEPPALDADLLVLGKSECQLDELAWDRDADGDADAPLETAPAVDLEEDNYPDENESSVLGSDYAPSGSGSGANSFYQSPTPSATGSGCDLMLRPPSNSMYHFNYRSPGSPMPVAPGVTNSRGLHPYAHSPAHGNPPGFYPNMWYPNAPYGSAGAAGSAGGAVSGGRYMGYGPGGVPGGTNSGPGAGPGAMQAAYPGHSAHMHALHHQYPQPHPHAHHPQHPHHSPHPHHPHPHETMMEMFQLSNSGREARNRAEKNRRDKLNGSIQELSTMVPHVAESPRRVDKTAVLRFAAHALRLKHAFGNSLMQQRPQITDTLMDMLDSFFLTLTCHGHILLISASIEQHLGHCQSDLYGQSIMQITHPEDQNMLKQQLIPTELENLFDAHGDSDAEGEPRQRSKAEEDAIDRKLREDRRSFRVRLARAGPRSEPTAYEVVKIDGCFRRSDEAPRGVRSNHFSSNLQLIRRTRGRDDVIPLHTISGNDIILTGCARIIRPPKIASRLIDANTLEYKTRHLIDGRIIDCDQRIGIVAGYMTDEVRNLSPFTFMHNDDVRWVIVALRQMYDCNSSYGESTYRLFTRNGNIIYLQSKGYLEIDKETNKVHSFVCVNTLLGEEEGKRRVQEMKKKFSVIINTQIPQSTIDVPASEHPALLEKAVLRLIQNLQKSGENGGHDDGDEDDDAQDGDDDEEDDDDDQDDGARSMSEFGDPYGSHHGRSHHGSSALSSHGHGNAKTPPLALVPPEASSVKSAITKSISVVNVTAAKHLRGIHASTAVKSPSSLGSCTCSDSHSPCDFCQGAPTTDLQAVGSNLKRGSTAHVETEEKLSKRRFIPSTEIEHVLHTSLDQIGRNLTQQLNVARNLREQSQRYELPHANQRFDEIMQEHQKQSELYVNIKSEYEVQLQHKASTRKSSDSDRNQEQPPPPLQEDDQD
T1 sequence (Q9VLD9 1-2026 partner): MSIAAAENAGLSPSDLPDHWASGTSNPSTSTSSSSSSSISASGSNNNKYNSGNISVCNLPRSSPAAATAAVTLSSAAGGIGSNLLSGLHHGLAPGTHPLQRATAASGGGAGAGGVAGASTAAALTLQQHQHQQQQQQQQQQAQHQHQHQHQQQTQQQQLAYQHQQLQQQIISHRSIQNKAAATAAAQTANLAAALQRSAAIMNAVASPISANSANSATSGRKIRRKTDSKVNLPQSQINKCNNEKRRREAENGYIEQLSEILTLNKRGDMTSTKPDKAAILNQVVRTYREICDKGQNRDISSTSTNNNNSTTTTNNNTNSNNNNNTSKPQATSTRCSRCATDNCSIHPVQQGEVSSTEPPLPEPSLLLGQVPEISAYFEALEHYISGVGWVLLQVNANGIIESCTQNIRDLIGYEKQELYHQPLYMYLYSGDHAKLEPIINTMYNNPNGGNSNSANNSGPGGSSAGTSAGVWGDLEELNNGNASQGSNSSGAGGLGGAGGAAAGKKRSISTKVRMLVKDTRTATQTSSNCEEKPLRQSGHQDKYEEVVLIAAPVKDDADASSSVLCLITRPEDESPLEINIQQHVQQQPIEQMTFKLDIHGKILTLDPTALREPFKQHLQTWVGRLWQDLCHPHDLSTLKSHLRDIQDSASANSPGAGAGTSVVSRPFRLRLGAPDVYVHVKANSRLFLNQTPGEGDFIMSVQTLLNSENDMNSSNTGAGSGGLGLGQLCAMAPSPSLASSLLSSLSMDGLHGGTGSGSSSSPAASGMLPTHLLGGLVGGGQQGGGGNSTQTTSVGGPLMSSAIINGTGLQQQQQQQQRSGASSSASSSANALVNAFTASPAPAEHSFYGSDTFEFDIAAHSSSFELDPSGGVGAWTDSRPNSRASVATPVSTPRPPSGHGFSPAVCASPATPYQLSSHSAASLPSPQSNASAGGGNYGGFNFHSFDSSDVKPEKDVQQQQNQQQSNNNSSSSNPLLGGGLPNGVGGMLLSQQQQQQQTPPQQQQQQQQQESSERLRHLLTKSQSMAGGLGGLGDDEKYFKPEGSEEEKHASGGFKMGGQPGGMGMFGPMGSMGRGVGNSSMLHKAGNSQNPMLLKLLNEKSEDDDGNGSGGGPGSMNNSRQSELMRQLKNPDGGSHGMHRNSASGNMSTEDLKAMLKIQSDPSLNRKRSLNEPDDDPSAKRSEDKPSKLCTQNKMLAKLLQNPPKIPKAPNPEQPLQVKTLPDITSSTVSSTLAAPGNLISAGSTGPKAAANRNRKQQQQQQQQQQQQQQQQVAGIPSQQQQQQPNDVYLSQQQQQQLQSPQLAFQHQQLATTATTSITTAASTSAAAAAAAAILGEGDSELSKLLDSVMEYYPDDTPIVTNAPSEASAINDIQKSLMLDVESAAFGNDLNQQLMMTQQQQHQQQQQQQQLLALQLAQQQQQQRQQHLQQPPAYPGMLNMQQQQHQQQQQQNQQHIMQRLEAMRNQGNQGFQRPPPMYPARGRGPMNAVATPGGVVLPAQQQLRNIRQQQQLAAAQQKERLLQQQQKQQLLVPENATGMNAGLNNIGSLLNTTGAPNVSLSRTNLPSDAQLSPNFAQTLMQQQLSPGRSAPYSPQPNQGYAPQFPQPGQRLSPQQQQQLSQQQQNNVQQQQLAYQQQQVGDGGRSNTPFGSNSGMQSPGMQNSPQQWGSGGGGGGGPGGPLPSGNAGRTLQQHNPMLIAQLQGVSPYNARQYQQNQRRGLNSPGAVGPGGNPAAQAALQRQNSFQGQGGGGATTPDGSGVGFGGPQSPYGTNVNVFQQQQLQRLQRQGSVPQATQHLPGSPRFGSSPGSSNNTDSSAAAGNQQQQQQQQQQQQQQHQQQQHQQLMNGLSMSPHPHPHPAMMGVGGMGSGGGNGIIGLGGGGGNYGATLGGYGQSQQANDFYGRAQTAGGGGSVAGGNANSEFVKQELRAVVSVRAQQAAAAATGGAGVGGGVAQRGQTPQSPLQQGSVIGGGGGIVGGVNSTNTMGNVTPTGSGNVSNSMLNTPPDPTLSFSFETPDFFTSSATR
Experiment [2] addresses T2, human AHR (Homo sapiens, UniProt P35869). Further details: species or system HepG2 (AZ-AHR). The conditions noted are these: HepG2, read-out: AHR Efficacy [%], AGO.
Experiment [3] concerns the target T1, JHR (GCE:TAI). The conditions noted are these: Drosophila Kc167, read-out: JHR Efficacy [%]. This is another data set of the same source.
Experiment [4] addresses T2, human AHR. Further details: species or system HepG2 (AZ-AHR). As to conditions: HepG2, read-out: AHR Efficacy [%].

T2 sequence (P35869 11-848): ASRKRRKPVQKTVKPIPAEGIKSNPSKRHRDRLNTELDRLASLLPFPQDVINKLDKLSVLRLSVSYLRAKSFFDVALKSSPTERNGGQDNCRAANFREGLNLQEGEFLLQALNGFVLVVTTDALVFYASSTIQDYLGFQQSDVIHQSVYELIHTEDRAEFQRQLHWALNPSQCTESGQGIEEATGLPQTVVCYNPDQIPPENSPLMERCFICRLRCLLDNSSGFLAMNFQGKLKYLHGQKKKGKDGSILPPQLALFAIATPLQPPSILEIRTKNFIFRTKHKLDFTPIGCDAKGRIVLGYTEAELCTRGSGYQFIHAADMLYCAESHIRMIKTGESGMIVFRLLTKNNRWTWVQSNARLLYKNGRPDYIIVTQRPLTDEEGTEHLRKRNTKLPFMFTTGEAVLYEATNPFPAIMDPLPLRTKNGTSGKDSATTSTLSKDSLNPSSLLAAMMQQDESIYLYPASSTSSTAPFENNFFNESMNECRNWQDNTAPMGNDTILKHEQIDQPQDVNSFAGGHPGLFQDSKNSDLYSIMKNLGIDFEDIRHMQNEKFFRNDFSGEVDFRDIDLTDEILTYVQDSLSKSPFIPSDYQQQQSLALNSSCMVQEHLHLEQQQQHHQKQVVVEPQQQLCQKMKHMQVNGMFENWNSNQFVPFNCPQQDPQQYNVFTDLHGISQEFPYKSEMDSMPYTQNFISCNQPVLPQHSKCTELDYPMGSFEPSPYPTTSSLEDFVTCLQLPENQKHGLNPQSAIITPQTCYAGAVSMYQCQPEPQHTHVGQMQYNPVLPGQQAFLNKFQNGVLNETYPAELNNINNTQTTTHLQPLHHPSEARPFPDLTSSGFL
T2 sequence (P27540 2-789 partner): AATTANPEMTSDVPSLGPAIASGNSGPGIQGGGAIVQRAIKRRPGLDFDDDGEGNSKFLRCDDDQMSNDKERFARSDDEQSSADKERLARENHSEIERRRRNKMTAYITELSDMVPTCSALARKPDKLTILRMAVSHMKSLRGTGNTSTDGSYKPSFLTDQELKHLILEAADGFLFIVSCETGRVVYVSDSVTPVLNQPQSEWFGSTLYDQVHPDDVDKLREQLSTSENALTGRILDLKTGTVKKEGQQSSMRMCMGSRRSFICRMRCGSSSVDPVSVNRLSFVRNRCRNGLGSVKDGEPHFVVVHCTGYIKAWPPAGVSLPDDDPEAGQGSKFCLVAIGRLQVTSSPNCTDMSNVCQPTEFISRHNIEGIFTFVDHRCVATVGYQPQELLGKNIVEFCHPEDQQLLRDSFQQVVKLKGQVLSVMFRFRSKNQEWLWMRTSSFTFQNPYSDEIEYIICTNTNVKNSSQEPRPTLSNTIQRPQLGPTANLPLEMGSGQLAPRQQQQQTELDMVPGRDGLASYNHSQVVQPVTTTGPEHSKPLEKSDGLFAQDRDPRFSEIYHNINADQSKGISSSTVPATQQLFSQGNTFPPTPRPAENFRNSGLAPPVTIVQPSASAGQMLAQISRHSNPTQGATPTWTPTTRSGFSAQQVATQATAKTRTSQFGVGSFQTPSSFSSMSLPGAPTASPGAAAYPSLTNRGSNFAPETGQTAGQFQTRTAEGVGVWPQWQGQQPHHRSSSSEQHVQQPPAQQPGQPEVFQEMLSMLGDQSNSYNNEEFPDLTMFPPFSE

`Cc1c(C(=O)Nc2ccc3ncccc3c2)sc2ccccc12` [2.7, cmpd 2.7]: the Emax on JHR (GCE:TAI) [1] came to 85%.

In the case of `Cc1nc(-c2ccsc2)sc1C(=O)Nc1cnn(C)c1` [cmpd 1.1], the Emax on human AHR [2] came to 19%; on JHR (GCE:TAI) [1], 183%.

As to `O=C(CCSc1nnc2ccccn12)NC(=O)NCc1ccccc1` [cmpd 1.2], the Emax at JHR (GCE:TAI) [3] was 83%.

For `CC(C)c1c(C(=O)NCC2CCCO2)nnn1-c1ccc(Br)cc1` (stereo not shown) [cmpd 1.3], the Emax at JHR (GCE:TAI) [1] was found to be 254%.

Consider `CN(C(=O)CN1CCOC(c2nccs2)C1)c1nccs1` (stereo not shown) [cmpd 1.4], for which the Emax at JHR (GCE:TAI) [1] was 266%.

Regarding `Cc1nc(NC(=O)c2ccccc2)sc1-c1cc(C(=O)NCC(=O)N[C@H](CCCN=C(N)N)C(=O)NCC(=O)N[C@H](CC(=O)O)C(=O)N[C@H](CC(=O)O)C(=O)N[C@H](CC(=O)O)C(N)=O)n[nH]1` [cmpd 2.1] (Bz-[X1]G[dR]G[dD][dD][dD]-NH2), the Emax on human AHR [2] is 52%; on JHR (GCE:TAI) [1], 143%.

For the compound `CC(Sc1nccn1C)C(=O)Nc1nc(-c2ccccc2)cs1` (stereo not shown) [cmpd 2.2], the Emax on human AHR [4] amounted to 103%; at JHR (GCE:TAI) [3], 110%.

As for `O=C(Nc1ccc(-c2nccs2)cc1)c1ccccc1C(F)(F)F` [cmpd 2.3], at JHR (GCE:TAI) [3], the Emax amounted to 88%.

As for `O=C(NCCCn1cccn1)c1ccc(C2CCCCC2)cc1` [cmpd 2.6], the values for the Emax on human AHR [4] and at JHR (GCE:TAI) [3] were 14% and 76%, respectively.

`Cc1c(C(=O)NCCc2cccnc2)oc2ccc(F)cc12` [cmpd 2.8]: the Emax amounted to 87% at human AHR [4] and 126% at JHR (GCE:TAI) [3].

As to `OC(COc1ccc2cc(Br)ccc2c1)Cn1cccn1` (stereo not shown) [cmpd 2.9], the figures for the Emax at human AHR [4] and on JHR (GCE:TAI) [3] were 19% and 70%, respectively.

With `Cc1csc(CCNC(=O)c2cnc(-c3ccccc3)nc2)n1` [cmpd 2.10], the figures for the Emax on human AHR [4] and at JHR (GCE:TAI) [3] were 30% and 128%, respectively.

In the case of `CC(NC(=O)CSCc1ccccc1)c1ccc(-n2ccnc2)cc1` (stereo not shown) [cmpd 2.12], the Emax at human AHR [4] was found to be 45%; at JHR (GCE:TAI) [3] it was 109%.

As to `CC(COc1ccc(Oc2ccccc2)cc1)Oc1ccccn1` (stereo not shown) [pyriproxyfen], on JHR (GCE:TAI) [3], the Emax came to 62%.
